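Interpolation was linear, between the two tested concentrations surrounding the appropriate level; five concentrations were tested over 48 hours in 96-well plates. GI50 = concentration required for 50% inhibition of growth. TGI: concentration producing complete growth inhibition.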
Assays:
Assay in all cases: NCI tumour cell line growth inhibition, 48 h
[1] = tested on: 786-0 renal
[2] = tested on: HCT-15 colon
[3] = tested on: HT29 colon
[4] = tested on: MALME-3M melanoma
[5] = tested on: NCI-H226 lung
[6] = tested on: OVCAR-4 ovarian
[7] = tested on: SF-539 CNS
[8] = tested on: SK-OV-3 ovarian
[9] = tested on: HCC-2998 colon
[10] = tested on: SNB-75 CNS

| SMILES | GI50 [1] | TGI [1] | GI50 [2] | TGI [2] | GI50 [3] | TGI [3] | GI50 [4] | TGI [4] | GI50 [5] | TGI [5] | GI50 [6] | TGI [6] | GI50 [7] | TGI [7] | GI50 [8] | TGI [8] | GI50 [9] | TGI [9] | TGI [10] | GI50 [10] |
| --- | --- | --- | --- | --- | --- | --- | --- | --- | --- | --- | --- | --- | --- | --- | --- | --- | --- | --- | --- | --- |
| CC(=O)c1c(C(F)(F)F)n([O-])c2ccccc2[n+]1=O | 2.86 µM | 15.3 µM | 1.29 µM | 50.4 µM | 1.3 µM | 8.3 µM | 0.652 µM | 3.06 µM | 1.46 µM | 3.91 µM | 0.969 µM | 3.9 µM | 2 µM | 5.38 µM | 3.17 µM | 23.9 µM | – | – | – | – |
| O=C(Oc1cccnc1)c1cccnc1Nc1ccnc(C(F)(F)F)c1 | 5.17 µM | 22.4 µM | 27.2 µM | > 100 µM | 30.8 µM | > 100 µM | 13 µM | 69.8 µM | 12.3 µM | 71.4 µM | > 100 µM | > 100 µM | – | – | > 100 µM | > 100 µM | 16.8 µM | 35.3 µM | – | – |
| CNC(=S)Nc1ccc(OC)c2ccccc12 | – | > 10 µM | – | > 10 µM | – | > 10 µM | – | > 10 µM | – | – | – | > 10 µM | – | > 10 µM | – | > 10 µM | – | > 10 µM | > 10 µM | – |
| COc1ccc2nccc(C3=CCC4CCN(C(=O)c5ccccc5)C3C4)c2c1 (centres undefined) | – | > 100 µM | – | > 100 µM | – | > 100 µM | – | > 100 µM | – | – | – | > 100 µM | – | > 100 µM | – | > 100 µM | – | > 100 µM | > 100 µM | – |
| CCOC(=O)NC(=O)c1cn(CCN2CCN(C(=O)NCCCCCCNC(=O)N3CCN(CCn4cc(C(=O)NC(=O)OCC)c(=O)[nH]c4=O)CC3)CC2)c(=O)[nH]c1=O | – | > 100 µM | – | > 100 µM | – | > 100 µM | – | > 100 µM | – | – | – | > 100 µM | – | > 100 µM | – | > 100 µM | – | > 100 µM | > 100 µM | – |
| CC(=O)Nc1ccc(-c2cc(C(=O)O)c3cc4ccccc4cc3n2)cc1 | – | > 100 µM | – | > 100 µM | – | > 100 µM | – | > 100 µM | – | > 100 µM | – | > 100 µM | – | > 100 µM | – | > 100 µM | – | – | > 100 µM | – |
| Cn1ccnc1CCc1c(Cl)cccc1Cl | – | > 100 µM | – | > 100 µM | – | > 100 µM | – | > 100 µM | – | > 100 µM | – | > 100 µM | – | > 100 µM | – | > 100 µM | – | – | > 100 µM | – |
| O=C1C2C3C=C4c5ccccc5N(c5ccccc5)C4(C2C(=O)N1c1ccccc1)C1C(=O)N(c2ccccc2)C(=O)C31 (centres undefined) | – | > 100 µM | – | > 100 µM | – | > 100 µM | – | > 100 µM | – | – | – | – | – | – | – | – | – | > 100 µM | > 100 µM | – |
| COc1ccc(-c2noc(C(=O)O)c2-c2cc(OC)c(OC)c(OC)c2)cc1 | 4.85 µM | > 100 µM | 0.881 µM | > 100 µM | 1.5 µM | > 100 µM | 8.02 µM | > 100 µM | > 100 µM | > 100 µM | 9.53 µM | > 100 µM | 2.45 µM | 20.5 µM | 3.9 µM | > 100 µM | 5.75 µM | > 100 µM | – | – |
| CC1=C(C(=O)Nc2ccccc2C)C(c2ccc(Cl)cc2)C(C(=O)Nc2ccccc2C)=C(C)N1 | – | > 100 µM | – | > 100 µM | – | > 100 µM | – | > 100 µM | – | > 100 µM | – | > 100 µM | – | > 100 µM | – | > 100 µM | – | > 100 µM | – | – |
| N#CC(C#N)=C/C=C(\Cl)c1ccc(Cl)cc1 | 4.56 µM | 15.7 µM | 4.5 µM | > 42.2 µM | 0.98 µM | – | 2.16 µM | 7.63 µM | 7.69 µM | 33.9 µM | 5.12 µM | 55.6 µM | 4.66 µM | 15.9 µM | 9.96 µM | > 52.7 µM | 6.75 µM | 19.9 µM | – | – |
| CC[O-].CC[O-].O=C([CH-]C(=O)c1ccccc1)CCCCCCCCC(=O)[CH-]C(=O)c1ccccc1.[Ti+4] | > 100 µM | > 100 µM | > 100 µM | > 100 µM | > 100 µM | > 100 µM | 73.6 µM | > 100 µM | – | – | 78.8 µM | > 100 µM | – | – | > 100 µM | > 100 µM | > 100 µM | > 100 µM | > 100 µM | > 100 µM |
| Cc1cc2c(C)nn(Cc3ccccc3)c2c(C(=O)O)c1C | – | > 100 µM | – | > 100 µM | – | – | – | > 100 µM | – | > 100 µM | – | – | – | > 100 µM | – | > 100 µM | – | > 100 µM | – | – |
| O=C(O)CCNS(=O)(=O)c1ccc(NC(=O)c2ccccc2)cc1 | – | > 100 µM | – | > 100 µM | – | > 100 µM | – | > 100 µM | – | – | – | > 100 µM | – | > 100 µM | – | > 100 µM | – | > 100 µM | > 100 µM | – |
| N=C1C(O)C2(I)c3ccccc3N3C(=N)C(O)C4c5ccccc5N1C4C32 (centres undefined) | – | > 100 µM | – | > 100 µM | – | > 100 µM | – | > 100 µM | – | – | – | 30.1 µM | – | – | – | > 100 µM | – | – | > 100 µM | – |
| C1CSCCCSCCCSCCCSCCCSCCCSCCCSCCCSC1 | – | > 100 µM | – | > 100 µM | – | > 100 µM | – | > 100 µM | – | > 100 µM | – | > 100 µM | – | > 100 µM | – | > 100 µM | – | > 100 µM | – | – |
| CN(C)CCNC(=O)Cn1ccc(=O)c2cc([N+](=O)[O-])ccc21 | – | > 100 µM | – | > 100 µM | – | > 100 µM | – | > 100 µM | – | > 100 µM | – | – | – | > 100 µM | – | > 100 µM | – | > 100 µM | – | – |
| CCc1c(C#N)c(=O)[nH]c(=O)n1CCN1CCN(C(=O)NCCCCCCNC(=O)N2CCN(CCn3c(CC)c(C#N)c(=O)[nH]c3=O)CC2)CC1 | – | > 100 µM | – | > 100 µM | – | > 100 µM | – | – | – | – | – | > 100 µM | – | > 100 µM | – | > 100 µM | – | > 100 µM | – | – |
| O=[N+]([O-])c1ccccc1N=Nc1c(O)[nH]c2cccc(C(F)(F)F)c12 | – | 60 µM | – | > 100 µM | – | > 100 µM | – | – | – | > 100 µM | – | 52 µM | – | – | – | > 100 µM | – | > 100 µM | > 100 µM | – |
| O=c1oc2ccccc2c2c1Sc1ccccc1N2 | – | > 100 µM | – | > 100 µM | – | > 100 µM | – | – | – | > 100 µM | – | > 100 µM | – | > 100 µM | – | – | – | > 100 µM | – | – |
| O=C(NCCCOC(=O)CCCCCCCCC(=O)OCCCNC(=O)NC(=O)c1c[nH]c(=O)[nH]c1=O)NC(=O)c1c[nH]c(=O)[nH]c1=O | – | > 100 µM | – | > 100 µM | – | – | – | > 100 µM | – | – | – | > 100 µM | – | > 100 µM | – | > 100 µM | – | > 100 µM | – | – |
| Clc1ccc(-c2cn3ccnc3c(-c3ccc(Cl)cc3)n2)cc1 | 29.5 µM | > 100 µM | 3.38 µM | 30.9 µM | 12.5 µM | > 100 µM | – | – | 40.8 µM | > 100 µM | – | – | 26.2 µM | > 100 µM | 82.8 µM | > 100 µM | – | – | > 100 µM | > 100 µM |
| CCSCCCSCCSCC | – | > 100 µM | – | > 100 µM | – | > 100 µM | – | – | – | – | – | > 100 µM | – | > 100 µM | – | > 100 µM | – | > 100 µM | > 100 µM | – |
| CN1N=CSC12C(=O)N(c1ccccc1)C(=O)N2c1ccccc1 (centres undefined) | – | > 100 µM | – | > 100 µM | – | > 100 µM | – | > 100 µM | – | – | – | > 100 µM | – | > 100 µM | – | > 100 µM | – | > 100 µM | > 100 µM | – |
| Cc1nc(C(N)=O)c(N)n1CCN1CCN(C(=O)CCCCCCCCCCNC2N=CNc3nc[nH]c32)CC1 (centres undefined) | – | > 100 µM | – | > 100 µM | – | > 100 µM | – | > 100 µM | – | – | – | – | – | > 100 µM | – | > 100 µM | – | > 100 µM | – | – |
| CC1=C2C(=C[C@@](C)(CO)[C@@H]2OC(=O)N(C)CCN(C)C(=O)OC(C)(C)C)C(=O)[C@](C)(O)C12CC2 | 11.6 µM | 37.8 µM | 3.98 µM | > 50 µM | 2.32 µM | > 50 µM | – | – | 11.7 µM | 34.7 µM | 4.68 µM | 22.6 µM | 7.92 µM | 21.2 µM | 6.93 µM | 23 µM | 8.3 µM | 26.2 µM | 11.8 µM | 5.29 µM |
| Oc1cccc(Nc2nc3ccccc3c3occc23)c1 | 9.73 µM | 21.4 µM | 15 µM | 33.8 µM | – | – | – | – | – | – | 3.8 µM | 22.1 µM | 16.1 µM | 29.6 µM | 11.7 µM | 23.9 µM | 2.67 µM | 11.3 µM | – | – |
| O=C1OCC2=C1C(c1cccc(F)c1)c1cc3c(cc1N2CCO)OCO3 (centres undefined) | 1.86 µM | > 50 µM | 1.08 µM | > 50 µM | 1.52 µM | > 50 µM | – | – | > 50 µM | > 50 µM | 46.8 µM | > 50 µM | 1.13 µM | 3.61 µM | 1.73 µM | > 50 µM | 7.06 µM | > 50 µM | 2.8 µM | 0.82 µM |
| O=S(=O)(/N=c1\scc(-c2ccccc2)n1-c1ccccc1)c1ccc(N2N=C3c4ccccc4CC3C2c2ccc(Cl)cc2)cc1 (centres undefined) | 32.7 µM | > 100 µM | 47.7 µM | > 100 µM | 44 µM | > 100 µM | – | – | 94.6 µM | > 100 µM | 63.8 µM | > 100 µM | 62.6 µM | > 100 µM | 76.2 µM | > 100 µM | – | – | > 100 µM | > 100 µM |
